Source: paper PMC8688152, “Distinct classes of potassium channels fused to GPCRs as electrical signaling biosensors” (Cell Reports Methods, 2021)

Experiments:
M2_T-09-43 = biological target: T1, M2_T-09-43 (UniProt P08172+P97438); experiment: TEVC recording of M2_T-09-43 in Xenopus oocytes; format: cell-based, human (M2), mouse (TREK-1); conditions: ACh 5 μM
T1 construct: expressed in transfected cells; host or cells: Xenopus oocytes (mRNA injection); gene synthesized by ATG:biosynthetics
Method: (§1) Microelectrodes were filled with […]. […] The membrane voltage was clamped to −50 mV.

[1] = biological target: T2, I252T mutant of M2_T-00-40 (UniProt P08172+P97438, I267T); format: cell-based, human (M2), mouse (TREK-1)
T2 construct: full-length (−00) or M2 deleted of its last nine residues (−09) in the indicated ICCRs; expressed in transfected cells; host or cells: Xenopus oocytes (mRNA injection)
T2 sequence (P08172+P97438 fused P97438:I267T): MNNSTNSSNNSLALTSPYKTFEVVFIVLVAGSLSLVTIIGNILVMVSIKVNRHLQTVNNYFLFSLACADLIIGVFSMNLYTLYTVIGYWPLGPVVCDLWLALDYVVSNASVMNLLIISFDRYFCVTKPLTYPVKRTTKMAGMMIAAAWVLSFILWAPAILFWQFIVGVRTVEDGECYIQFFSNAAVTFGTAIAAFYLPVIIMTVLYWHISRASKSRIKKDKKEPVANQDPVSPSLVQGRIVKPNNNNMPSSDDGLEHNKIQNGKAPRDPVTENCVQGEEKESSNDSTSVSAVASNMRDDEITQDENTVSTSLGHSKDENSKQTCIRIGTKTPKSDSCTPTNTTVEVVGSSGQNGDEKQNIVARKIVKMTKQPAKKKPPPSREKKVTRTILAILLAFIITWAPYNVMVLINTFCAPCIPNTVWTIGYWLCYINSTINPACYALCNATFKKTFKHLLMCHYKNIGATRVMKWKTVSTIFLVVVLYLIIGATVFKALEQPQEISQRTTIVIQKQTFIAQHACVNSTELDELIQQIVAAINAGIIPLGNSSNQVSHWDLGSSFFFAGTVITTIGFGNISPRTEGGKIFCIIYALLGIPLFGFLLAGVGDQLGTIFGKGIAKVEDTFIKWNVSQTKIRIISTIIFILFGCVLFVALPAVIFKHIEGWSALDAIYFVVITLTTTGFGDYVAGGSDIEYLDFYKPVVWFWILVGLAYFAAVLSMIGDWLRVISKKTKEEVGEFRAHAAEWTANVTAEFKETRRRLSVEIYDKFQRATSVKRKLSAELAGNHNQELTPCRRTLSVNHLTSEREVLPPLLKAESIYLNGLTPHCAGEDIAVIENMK
Method: (§2) Xenopus oocytes were prepared as previously reported ([Moreau et al., 2008]). Briefly, after surgical retrieval, the oocytes were defolliculated by type 1A collagenase. Each oocyte was injected with 50 nl of RNAse-free water containing the desired mRNAs. The mRNA quantities used per oocyte were: ICCR with Kcv, 2.7 ng (M2_Kcv and D2_Kcv) and 2.9 ng (OXTR_Kcv); ICCR with mTREK-1, 4.2 ng; ICCR with Kir6.2, 4.3 ng; M2, 2.3 ng; D2, 2.2 ng; Kir3.4T, 2.2 ng; Kcv 0.46 ng and mTREK-1, 2.1 ng. Microinjected oocytes were incubated 2 to 3 days at 19°C in modified-Barth's solution (in mM: 1 KCl, 0.82 MgSO4, 88 NaCl, 2.4 NaHCO3, 0.41 CaCl2, 16 HEPES, pH 7.4) supplemented with 100 U.ml^−1 of penicillin and streptomycin and 0.1 mg.mL^−1 of gentamycin. Animal handling and experiments fully conformed to European regulations and were approved by the French Ministry of Higher Education and Research (APAFIS#4420-2016030813053199 v4 to CM). […]
(§3) Two-electrode voltage-clamp (TEVC) recordings were performed automatically with HiClamp robots (MultiChannel Systems). […] Ligand effects were measured in high potassium concentration buffer with the membrane potential clamped to −50 mV and at 19°C.
(§4) Change of potassium current induced by ligand was calculated either with the barium-sensitive currents as a 0-reference for Kcv-based ICCRs or with the currents in ND96 for mTREK-1 ICCRs. […]

[2] = system: I252T mutant of M2_T-00-40; format: cell-based, human (M2), mouse (TREK-1); conditions: ACh 5 μM; I252T versus WT M2_T-00-40
Method: as §2, §3, §4

[3] = system: Kir3.4T (Kir3.4(S143T)) co-expressed with M2_T constructs; experiment: G protein activation assay: Kir3.4T co-expressed with M2_T ICCRs (TEVC); format: cell-based, Xenopus oocytes; conditions: 5 μM ACh
Method: as §1

[4] = system: M2_Kcv-09-xx constructs with larger deletions up to 12 residues; format: cell-based, human (M2), Paramecium bursaria chlorella virus 1 (Kcv); conditions: ACh 5 μM, TEVC
Method: as §2, §3, §4

M2_T-00-43 = biological target: T3, M2_T-00-43 (UniProt P08172+P97438); experiment: TEVC recording of M2_T-00-43 ICCR in Xenopus oocytes; format: cell-based, human (M2), mouse (TREK-1); set-up: full-length (−00) or M2 deleted of its last nine residues (−09) in the indicated ICCRs; expressed in transfected cells; host or cells: Xenopus oocytes (mRNA injection)
T3 sequence (P08172+P97438 with tags, fused parts or gaps): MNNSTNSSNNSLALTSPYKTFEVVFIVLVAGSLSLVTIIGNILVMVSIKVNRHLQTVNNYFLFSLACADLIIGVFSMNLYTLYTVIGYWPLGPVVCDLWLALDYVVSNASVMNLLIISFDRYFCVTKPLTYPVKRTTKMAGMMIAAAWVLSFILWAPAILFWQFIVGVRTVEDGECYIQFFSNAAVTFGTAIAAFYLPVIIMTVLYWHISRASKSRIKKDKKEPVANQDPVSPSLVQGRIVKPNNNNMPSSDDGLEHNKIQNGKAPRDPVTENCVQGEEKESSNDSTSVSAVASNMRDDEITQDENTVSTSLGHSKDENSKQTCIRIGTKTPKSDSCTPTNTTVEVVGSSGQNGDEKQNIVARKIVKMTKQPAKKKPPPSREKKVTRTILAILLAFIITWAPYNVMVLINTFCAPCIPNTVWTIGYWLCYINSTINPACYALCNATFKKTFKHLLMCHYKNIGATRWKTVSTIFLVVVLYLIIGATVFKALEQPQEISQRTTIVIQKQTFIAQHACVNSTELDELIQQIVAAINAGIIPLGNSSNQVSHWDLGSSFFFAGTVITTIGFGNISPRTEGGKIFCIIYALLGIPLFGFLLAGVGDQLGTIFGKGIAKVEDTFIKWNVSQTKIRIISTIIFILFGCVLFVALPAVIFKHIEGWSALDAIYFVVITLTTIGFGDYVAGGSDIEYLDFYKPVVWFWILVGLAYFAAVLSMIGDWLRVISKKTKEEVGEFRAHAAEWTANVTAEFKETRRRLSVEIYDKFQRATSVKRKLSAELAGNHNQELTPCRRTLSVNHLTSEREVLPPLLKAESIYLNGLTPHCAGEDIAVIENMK
Method: Xenopus oocytes were prepared as previously reported ([Moreau et al., 2008]). Briefly, after surgical retrieval, the oocytes were defolliculated by type 1A collagenase. Each oocyte was injected with 50 nl of RNAse-free water containing the desired mRNAs. The mRNA quantities used per oocyte were: ICCR with Kcv, 2.7 ng (M2_Kcv and D2_Kcv) and 2.9 ng (OXTR_Kcv); ICCR with mTREK-1, 4.2 ng; ICCR with Kir6.2, 4.3 ng; M2, 2.3 ng; D2, 2.2 ng; Kir3.4T, 2.2 ng; Kcv 0.46 ng and mTREK-1, 2.1 ng. Microinjected oocytes were incubated 2 to 3 days at 19°C in modified-Barth's solution (in mM: 1 KCl, 0.82 MgSO4, 88 NaCl, 2.4 NaHCO3, 0.41 CaCl2, 16 HEPES, pH 7.4) supplemented with 100 U.ml^−1 of penicillin and streptomycin and 0.1 mg.mL^−1 of gentamycin. Animal handling and experiments fully conformed to European regulations and were approved by the French Ministry of Higher Education and Research (APAFIS#4420-2016030813053199 v4 to CM). Authorization of the animal facility has been delivered by the Prefect of Isere (Authorization #D 38 185 10 001).
Two-electrode voltage-clamp (TEVC) recordings were performed automatically with HiClamp robots (MultiChannel Systems). These TEVC robots rapidly change the applied solutions by transferring the oocytes in different wells of a 96-well plate. […] Microelectrodes were filled with […]. During recordings, oocytes were incubated in low potassium concentration buffer (ND96, in mM: 96 NaCl, 2 KCl, 1.8 CaCl2, 1 MgCl2, 5 HEPES, pH 7.4 supplemented with 0.3 niflumic acid), and in high potassium buffer (in mM: 91 KCl, 1.8 CaCl2, 1 MgCl2, 5 HEPES, 0.3 niflumic acid, pH 7.4). The membrane voltage was clamped to −50 mV. Ligands and BaCl2 were diluted in the high potassium buffer. […] Ligand effects were measured in high potassium concentration buffer with the membrane potential clamped to −50 mV and at 19°C.
Change of potassium current induced by ligand was calculated either with the barium-sensitive currents as a 0-reference for Kcv-based ICCRs or with the currents in ND96 for mTREK-1 ICCRs. Softwares created by Michel Vivaudou ([Vivaudou, 2019]) were used to extract the raw data.

T1 sequence (P08172+P97438 fused): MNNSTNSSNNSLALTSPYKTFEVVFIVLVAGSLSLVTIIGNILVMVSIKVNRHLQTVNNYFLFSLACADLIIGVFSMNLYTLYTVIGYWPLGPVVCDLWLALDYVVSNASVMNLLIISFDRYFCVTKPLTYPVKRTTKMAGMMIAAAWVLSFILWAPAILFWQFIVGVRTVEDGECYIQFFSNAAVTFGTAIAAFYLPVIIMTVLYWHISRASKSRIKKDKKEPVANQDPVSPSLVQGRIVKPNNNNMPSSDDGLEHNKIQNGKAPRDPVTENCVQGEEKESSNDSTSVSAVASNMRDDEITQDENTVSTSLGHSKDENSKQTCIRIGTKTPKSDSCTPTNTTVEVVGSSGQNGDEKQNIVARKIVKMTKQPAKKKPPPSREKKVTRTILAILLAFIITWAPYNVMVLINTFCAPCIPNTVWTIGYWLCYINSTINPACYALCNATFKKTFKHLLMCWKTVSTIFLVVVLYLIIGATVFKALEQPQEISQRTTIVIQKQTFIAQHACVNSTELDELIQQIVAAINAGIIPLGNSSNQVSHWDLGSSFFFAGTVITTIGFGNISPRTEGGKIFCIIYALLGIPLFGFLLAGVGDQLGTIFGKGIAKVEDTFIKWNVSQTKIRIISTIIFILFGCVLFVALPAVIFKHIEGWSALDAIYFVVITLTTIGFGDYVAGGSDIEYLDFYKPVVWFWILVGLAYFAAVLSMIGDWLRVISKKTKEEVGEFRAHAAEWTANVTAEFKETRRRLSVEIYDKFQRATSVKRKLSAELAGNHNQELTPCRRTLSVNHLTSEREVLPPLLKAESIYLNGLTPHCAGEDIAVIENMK

CC(=O)OCC[N+](C)(C)C [ACh, acetylcholine]
regulation of M2_T-09-43 by ACh (M2_T-09-43): no significant regulation
activation induced by ACh on the I252T mutant of M2_T-00-40 [1]: 84.7% ± 11.2%
increase of ACh-induced activation of the I252T mutant compared with the WT counterpart [2]: more than 4 fold
G protein activation (Kir3.4T) by M2_T-09-40 and -09-43 [3]: still able to activate Gi/o proteins
activation of Kir3.4T co-expressed with M2_T-00-37, −40, −43 and −46 ([3]; no significant differences between the four constructs): clear activation
response of M2_Kcv-09 constructs with larger deletions up to 12 residues to ACh [4]: did not yield significant responses
Hill coefficient (nH) on M2_T-00-43 (M2_T-00-43): 0.76
activation: % of current change induced by ACh 5 μM on M2_T-00-43 (M2_T-00-43): 49.9% ± 5.1%
activation: % of current change induced by ACh 5 μM on M2_T-00-43 co-expressed with PTX (M2_T-00-43; 5 μM, co-injection of mRNA for pertussis toxin S1 subunit, mean ± SEM): 49.3% ± 4.4%
